The values that follow come from patent publication US8642341B2, “Materials and methods for gene mediated therapy of psychiatric disorders” (Cornell University, priority 2007, dated 2014).

For assay [1], the system named is mice. In words: mouse tail suspension test (TST). Conditions: mice injected with control vector or no virus. Type of assay: in vivo. The source says:
(§1) Two mouse groups (n=10) received bilateral nucleus accumbens injections of AAV-p11-siRNA or control vector. The mouse groups are referenced herein as the “knockdown group” or “control” respectively. Behavioral testing began 6 weeks later, when expression from AAV vectors usually peaks. Behavioral testing included mouse tail suspension test (TST), open filed test, and forced swim test (FST).
(§2) Knockdown and control groups of mice were transfected with AAV-p11-siRNA or control AAV vector, as described in Example 1. An additional control group was not transfected with any virus. The mice were subsequently treated with the antidepressant imipramine.
(§3) The AAV plasmid shown in FIGS. 2 and 3 was used to generate a virus vector, which expresses the p11 gene product and which has the same AAV2 backbone described in Example 1. The resulting virus vector (“AAV-p11,” which is SEQ ID NO: 3) was injected into the nucleus accumbens of normal adult mice.
(§4) Three groups of p11 knockdown mice (as in Example 1) were transfected with no virus, control virus vector, and the AAV-p11 virus vector of Example 3, respectively. Each knockdown transfectant group was compared to a wild-type counterpart group, which was also transfected with no virus, control virus vector, or AAV-p11. All virus transfections involved bilateral injection to the nucleus accumbens.

Assay [2] deals with mice. Briefly: forced swim test (FST). Type of assay: in vivo, mouse. Conditions: mice injected with control vector or no virus.
From the text: as §1, §2, §3, §4

In the case of `CN(C)CCCN1c2ccccc2CCc2ccccc21` [imipramine], the “immobility on the TST after imipramine” value in the assay on mice [1] is “decreased immobility”. Moreover, the “immobility on the FST after imipramine” value in the assay on mice [2] is “decreased immobility”.
